Patent publication US9346812B2, “Substituted pyrrolopyrimidine compounds, compositions thereof, and methods of treatment therewith” (Signal Pharmaceutical LLC, priority 2013, dated 2016)

Tested on: CAL51 cell proliferation
Assay: Cell Titer Glo Proliferation Assay (CAL51)
Format: cell-based, human
Details: CAL51 cell proliferation, 72 h, Cell Titer Glo luminescence; read-out: Act. Level
How it was run: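 Viability is measured by CellTiter-Glo luminescence after 72 h of compound exposure. CAL51 cells were seeded in growth medium with 10% FBS and 2 mM glutamine, cultured overnight, then dosed with compound dilutions, vehicle held at 0.2% DMSO.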

Row | SMILES | IC50 [µM]
1 | CNC(=O)c1ccc(Nc2nc(OC3CC3)c3c(-c4ccn(C)n4)c[nH]c3n2)c(OC)c1 [Example 218, 4-(4-cyclopropoxy-5-(1-methyl-1H-pyrazol-3-yl)-7H-pyrrolo[2,3-d]pyrimidin-2-ylamino)-3-methoxy-N-methylbenzamide] | 1 to 10

Same assay, conditions: Homo sapiens, CAL-51; CAL51 cell proliferation, 72 h, Cell Titer Glo luminescence; read-out: Act. Level

Row | SMILES | IC50 [µM]
2 | CNC(=O)c1ccc(Nc2nc(OC3CCOCC3)c3c(-c4ccc(-c5nccn5C)cc4)c[nH]c3n2)c(OC)c1 [Example 195, 3-methoxy-N-methyl-4-(5-(4-(1-methyl-1H-imidazol-2-yl)phenyl)-4-(tetrahydro-2H-pyran-4-yloxy)-7H-pyrrolo[2,3-d]pyrimidin-2-ylamino)benzamide] | 1 to 10
3 | CCOc1ccc(-c2c[nH]c3nc(Nc4ccc(C(=O)NC)cc4OC)nc(OC(C)C)c23)cn1 [Example 196, 4-(5-(6-ethoxypyridin-3-yl)-4-isopropoxy-7H-pyrrolo[2,3-d]pyrimidin-2-ylamino)-3-methoxy-N-methylbenzamide] | 0.1 to 0.4
4 | CNC(=O)c1ccc(Nc2nc(OC3CCOCC3)c3c(-c4ccc(-c5nc(C)c(C)[nH]5)cc4)c[nH]c3n2)c(OC)c1 [Example 197, 4-(5-(4-(4,5-dimethyl-1H-imidazol-2-yl)phenyl)-4-(tetrahydro-2H-pyran-4-yloxy)-7H-pyrrolo[2,3-d]pyrimidin-2-ylamino)-3-methoxy-N-methylbenzamide] | 0.1 to 0.4
5 | CNC(=O)c1ccc(Nc2nc(OC3CCC3)c3c(-c4ccc5nc(C)oc5c4)c[nH]c3n2)c(OC)c1 [Example 198, 4-(4-cyclobutoxy-5-(2-methylbenzo[d]oxazol-6-yl)-7H-pyrrolo[2,3-d]pyrimidin-2-ylamino)-3-methoxy-N-methylbenzamide] | < 0.1
6 | CNC(=O)c1ccc(Nc2nc(OC(C)C)c3c(-c4ccnc(NC)c4)c[nH]c3n2)c(OC)c1 [Example 199, 4-(4-isopropoxy-5-(2-(methylamino)pyridin-4-yl)-7H-pyrrolo[2,3-d]pyrimidin-2-ylamino)-3-methoxy-N-methylbenzamide] | < 0.1
7 | CNC(=O)c1ccc(Nc2nc(OC3CCOCC3)c3c(-c4ccncc4)c[nH]c3n2)c(C(C)C)c1 [Example 200, 3-isopropyl-N-methyl-4-(5-(pyridin-4-yl)-4-(tetrahydro-2H-pyran-4-yloxy)-7H-pyrrolo[2,3-d]pyrimidin-2-ylamino) benzamide] | 0.1 to 0.4
8 | CNC(=O)c1ccc(Nc2nc(OC(C)C)c3c(-c4ccnc(C)c4)c[nH]c3n2)c(OC)c1 [Example 201, 4-(4-isopropoxy-5-(2-methyl-pyridin-4-yl)-7H-pyrrolo[2,3-d]pyrimidin-2-ylamino)-3-methoxy-N-methylbenzamide] | < 0.1
9 | CNC(=O)c1ccc(Nc2nc(NC(C)C)c3c(-c4ccc5nc(C)oc5c4)c[nH]c3n2)c(OC)c1 [Example 202, 4-(4-(isopropylamino)-5-(2-methylbenzo[d]oxazol-6-yl)-7H-pyrrolo[2,3-d]pyrimidin-2-ylamino)-3-methoxy-N-methylbenzamide] | < 0.1
10 | CC[C@@H](C)Oc1nc(Nc2ccc(C(=O)NC)cc2OC)nc2[nH]cc(-c3ccc4nc(C)oc4c3)c12 [Example 203, (R)-4-(4-sec-butoxy-5-(2-methylbenzo[d]oxazol-6-yl)-7H-pyrrolo[2,3-d]pyrimidin-2-ylamino)-3-methoxy-N-methylbenzamide] | 0.1 to 0.4
11 | CC[C@H](C)Oc1nc(Nc2ccc(C(=O)NC)cc2OC)nc2[nH]cc(-c3ccc4nc(C)oc4c3)c12 [Example 204, (S)-4-(4-sec-butoxy-5-(2-methylbenzo[d]oxazol-6-yl)-7H-pyrrolo[2,3-d]pyrimidin-2-ylamino)-3-methoxy-N-methylbenzamide] | 0.1 to 0.4
12 | CNC(=O)c1ccc(Nc2nc(O[C@H]3CC[C@](C)(O)CC3)c3c(-c4ccc5nc(C)oc5c4)c[nH]c3n2)c(OC)c1 [Example 205, 4-(4-((1r,4r)-4-hydroxy-4-methylcyclohexyloxy)-5-(2-methylbenzo[d]oxazol-6-yl)-7H-pyrrolo[2,3-d]pyrimidin-2-ylamino)-3-methoxy-N-methylbenzamide] | < 0.1
13 | CNC(=O)c1ccc(Nc2nc(O[C@H]3CC[C@@](C)(O)CC3)c3c(-c4ccc5nc(C)oc5c4)c[nH]c3n2)c(OC)c1 [Example 206, 4-(4-((1s,4s)-4-hydroxy-4-methylcyclohexyloxy)-5-(2-methylbenzo[d]oxazol-6-yl)-7H-pyrrolo[2,3-d]pyrimidin-2-ylamino)-3-methoxy-N-methylbenzamide] | < 0.1
14 | CNC(=O)c1ccc(Nc2nc(OC3CCOCC3)c3c(-c4ccc(-c5nc(C)c[nH]5)cc4)c[nH]c3n2)c(OC)c1 [Example 207, 3-methoxy-N-methyl-4-(5-(4-(4-methyl-1H-imidazol-2-yl)phenyl)-4-(tetrahydro-2H-pyran-4-yloxy)-7H-pyrrolo[2,3-d]pyrimidin-2-ylamino)benzamide] | < 0.1
15 | CNC(=O)c1ccc(Nc2nc(O[C@H]3CCOC3)c3c(-c4cnn(C)c4)c[nH]c3n2)c(C(C)C)c1 [Example 208, (S)-3-isopropyl-N-methyl-4-(5-(1-methyl-1H-pyrazol-4-yl)-4-(tetahydrofuran-3-yloxy)-7H-pyrrolo[2,3-d]pyrimidin-2-ylamino)benzamide] | 0.1 to 0.4
16 | CNC(=O)c1ccc(Nc2nc(O[C@H]3CCOC3)c3c(-c4ccc5nc(C)oc5c4)c[nH]c3n2)c(C(C)C)c1 [Example 209, (S)-3-isopropyl-N-methyl-4-(5-(2-methylbenzo[d]oxazol-6-yl)-4-(tetrahydrofuran-3-yloxy)-7H-pyrrolo[2,3-d]pyrimidin-2-ylamino)benzamide] | 1 to 10
17 | CNC(=O)c1ccc(Nc2nc(NC3CCOCC3)c3c(-c4cnn(C)c4)c[nH]c3n2)c(OC)c1 [Example 210, 3-methoxy-N-methyl-4-(5-(1-methyl-1H-pyrazol-4-yl)-4-(tetrahydro-2H-pyran-4-ylamino)-7H-pyrrolo[2,3-d]pyrimidin-2-ylamino)benzamide] | < 0.1
18 | CNC(=O)c1ccc(Nc2nc(NC3CC3)c3c(-c4cnn(C)c4)c[nH]c3n2)c(OC)c1 [Example 211, 4-(4-(cyclopropylamino)-5-(1-methyl-1H-pyrazol-4-yl)-7H-pyrrolo[2,3-d]pyrimidin-2-ylamino)-3-methoxy-N-methylbenzamide] | 0.1 to 0.4
19 | CNC(=O)c1ccc(Nc2nc(NC3CC3)c3c(-c4ccc5nc(C)oc5c4)c[nH]c3n2)c(OC)c1 [Example 212, 4-(4-(cyclopropylamino)-5-(2-methylbenzo[d]oxazol-6-yl)-7H-pyrrolo[2,3-d]pyrimidin-2-ylamino)-3-methoxy-N-methylbenzamide] | 0.1 to 0.4
20 | COc1cc(C(=O)NCCO)ccc1Nc1nc(OC2CCOCC2)c2c(-c3ccc4nc(C)oc4c3)c[nH]c2n1 [Example 213, N-(2-hydroxyethyl)-3-methoxy-4-(5-(2-methylbenzo[d]oxazol-6-yl)-4-(tetrahydro-2H-pyran-4-yloxy)-7H-pyrrolo[2,3-d]pyrimidin-2-ylamino)benzamide] | < 0.1
21 | COc1cc(C(=O)N[C@H](C)CO)ccc1Nc1nc(OC2CCCC2)c2c(-c3ccc4nc(C)oc4c3)c[nH]c2n1 [Example 214, (R)-4-(4-(cyclopentyloxy)-5-(2-methylbenzo[d]oxazol-6-yl)-7H-pyrrolo[2,3-d]pyrimidin-2-ylamino)-N-(1-hydroxypropan-2-yl)-3-methoxybenzamide] | < 0.1
22 | COc1cc(C(=O)N[C@@H](C)CO)ccc1Nc1nc(OC2CCCC2)c2c(-c3ccc4nc(C)oc4c3)c[nH]c2n1 [Example 215, (S)-4-(4-(cyclopentyloxy)-5-(2-methylbenzo[d]oxazol-6-yl)-7H-pyrrolo[2,3-d]pyrimidin-2-ylamino)-N-(1-hydroxypropan-2-yl)-3-methoxybenzamide] | < 0.1
23 | COc1cc(C(=O)NCCO)ccc1Nc1nc(OC2CC2)c2c(-c3ccc4nc(C)oc4c3)c[nH]c2n1 [Example 216, 4-(4-cyclopropoxy-5-(2-methylbenzo[d]oxazol-6-yl)-7H-pyrrolo[2,3-d]pyrimidin-2-ylamino)-N-(2-hydroxyethyl)-3-methoxybenzamide] | < 0.1
24 | COc1cc(C(=O)NCCO)ccc1Nc1nc(OC2CC2)c2c(-c3cnn(C)c3)c[nH]c2n1 [Example 217, 4-(4-cyclopropoxy-5-(1-methyl-1H-pyrazol-4-yl)-7H-pyrrolo[2,3-d]pyrimidin-2-ylamino)-N-(2-hydroxyethyl)-3-methoxybenzamide] | 0.1 to 0.4
25 | CNS(=O)(=O)c1ccc(Nc2nc(OC3CCOCC3)c3c(-c4ccc5nc(C)oc5c4)c[nH]c3n2)c(OC)c1 [Example 219, 3-methoxy-N-methyl-4-(5-(2-methylbenzo[d]oxazol-6-yl)-4-(tetrahydro-2H-pyran-4-yloxy)-7H-pyrrolo[2,3-d]pyrimidin-2-ylamino)benzenesulfonamide] | 0.1 to 0.4
26 | CNC(=O)c1ccc(Nc2nc(OC(C)C)c3c(-c4ccn(C)n4)c[nH]c3n2)c(OC)c1 [Example 220, 4-(4-isopropoxy-5-(1-methyl-1H-pyrazol-3-yl)-7H-pyrrolo[2,3-d]pyrimidin-2-ylamino)-3-methoxy-N-methylbenzamide] | 1 to 10
27 | COCCOc1nc(Nc2ccc(C(=O)N(C)C)cc2OC)nc2[nH]cc(-c3cnn(C)c3)c12 [Example 221, 3-methoxy-4-(4-(2-methoxyethoxy)-5-(1-methyl-1H-pyrazol-4-yl)-7H-pyrrolo[2,3-d]pyrimidin-2-ylamino)-N,N-dimethylbenzamide] | < 0.1
28 | COc1cc(C(=O)N(C)C)ccc1Nc1nc(O[C@@H]2CCOC2)c2c(-c3ccc4nc(C)oc4c3)c[nH]c2n1 [Example 222, (R)-3-methoxy-N,N-dimethyl-4-(5-(2-methylbenzo[d]oxazol-6-yl)-4-(tetrahydrofuran-3-yloxy)-7H-pyrrolo[2,3-d]pyrimidin-2-ylamino)benzamide] | < 0.1
29 | CNC(=O)c1ccc(Nc2nc(OC3CCOCC3)c3c(-c4ccc5nc(C)sc5c4)c[nH]c3n2)c(OC)c1 [Example 223, 3-methoxy-N-methyl-4-(5-(2-methylbenzo[d]thiazol-6-yl)-4-(tetrahydro-2H-pyran-4-yloxy)-7H-pyrrolo[2,3-d]pyrimidin-2-ylamino)benzamide] | < 0.1
